Laboratory results taken from EP4813993A1, “COMPOUND, PREPARATION METHOD THEREFOR, AND USE THEREOF” (Sichuan Kelun Pharmaceutical Research Institute Co., Ltd., priority 2023, dated 2025).

What was measured:
[1] = test system: CFA-induced rat inflammatory pain model; assay: CFA-induced rat inflammatory pain model, Von Frey test; assay type: in vivo, SD rats
Protocol: Experimental Example 9: Pharmacodynamic effect study of compounds in CFA-induced rat inflammatory pain model Experimental animals: SD rats, male, 180-220 g.
Compound preparation: 5% (final preparation volume) of DMSO was added to dissolve the test compound, and then 10% (final preparation volume) of Cremophor EL and 85% Saline were sequentially added; an appropriate amount of Celecoxib was weighed, 5% (final preparation volume) of DMSO was added to dissolve the test compound, and then 5% (final preparation volume) of HS-15 and 90% Saline were sequentially added.
SD rats were anesthetized with isoflurane. The right hind paw was disinfected, a needle was inserted subcutaneously at the posterior plantar aspect, and 50 µL of complete Freund's adjuvant (CFA, 1 mg/mL) was administered via subcutaneous injection at the midplantar region, with the needle withdrawn slowly while rotating to prevent leakage. After modeling, local redness and swelling of the soles of the feet, difficulty in walking, and lifting of the affected feet were observed.
(§1) 2. Administration and test
(§2) The Von Frey test was performed once before the surgery. On the second day after animal modeling, animals meeting the baseline requirements were selected for enrollment. The animals were randomly divided into 6 groups based on the 50% PWT values, with 10 animals per group. Administration was performed under a double-blind test protocol. The 50% PWT of the animals was measured separately before administration (baseline) and at 0.5 h, 2 h, and 8 h after administration. The model control group was given normal saline, while the compound groups were given the compounds according to the administration doses in the table below.

[2] = Pharmacokinetic study in ICR mice; assay type: in vivo; settings: male, mouse, plasma
[3] = test system: spinal nerve ligation model (SNL); assay: Rat spinal nerve ligation model (SNL), Von Frey test; assay type: in vivo, SD rats; settings: for PWT 50% value (g) Post-surgery, Preadministration / PWT 50% value (g) Pre-surgery / PWT 50% value (g) Time 0.5 h / PWT 50% value (g) Time 2 h / PWT 50% value (g) Time 4 h / PWT 50% value (g) Time 6 h / PWT 50% value (g) Time 8 h / PWT 50% value (g) AUC0-8h: SD rats SNL, Mean + SEM, n = 10; for PWT 50% value (g) Post-surgery, Preadministration: baseline before administration; for PWT 50% value (g) Pre-surgery: baseline before surgery; for PWT 50% value (g) Time 0.5 h: 0.5 h after administration; for PWT 50% value (g) Time 2 h: 2 h after administration; for PWT 50% value (g) Time 4 h: 4 h after administration; for PWT 50% value (g) Time 6 h: 6 h after administration; for PWT 50% value (g) Time 8 h: 8 h after administration
Protocol: Experimental Example 8: Pharmacodynamic effect study of compounds in rat spinal nerve ligation model (SNL) Experimental animals: SD rats, male, 180-220 g.
(§3) Compound preparation: 5% (final preparation volume) of DMSO was added to dissolve the test compound, and then 10% (final preparation volume) of Cremophor EL and 85% Saline were sequentially added.
SD rats were anesthetized with isoflurane via inhalation. Each rat was placed in a prone position, and the hair at the surgical site was shaved locally. The surgical site was disinfected with alcohol and iodophor. Under sterile conditions, a 3-4 cm longitudinal incision was made at the level of the lower lumbar/upper sacrum to expose the left paravertebral muscles. Using small sharp-blunt scissors, the paravertebral muscles were bluntly dissected, and the transverse process of L6 was excised. The L4 and L5 spinal nerves were isolated and exposed, and the L5 spinal nerve was ligated with 6-0 silk sutures. The surgical wound was treated with ceftriaxone for anti-inflammation and infection prevention. The muscles and skin were sutured layer by layer, followed by disinfection with iodophor. After the surgery, the animals were placed on a warm electric blanket for heat preservation and returned to the cages for rearing after complete recovery from anesthesia. Postoperative behavioral observations were performed.
as §1
The Von Frey test was performed once before the surgery. On the 5th and 6th days after surgery, paw-lifting training was performed once each day. Animals with a baseline of 2-5 g were selected for enrollment and grouped based on the 50% PWT values, with 10 animals per group. The next day, a single dose was administered in a blinded manner. The 50% PWT of the animals was measured separately before administration (baseline) and at 0.5 h, 2 h, 4 h, 6 h, or 8 h after administration. The model control group was given normal saline, while the compound groups were given the compounds according to the administration doses in the table below.

[4] = test system: incision pain model; assay: Incision pain model in SD rats, Von Frey test; assay type: in vivo
Protocol: Experimental Example 7: Pharmacodynamic effect study of compounds in incision pain model in SD rats
Experimental animals: SD rats, male, 180-220 g.
as §3
A plantar incision pain model was established in rats via surgery before the administration and test. Rats were placed in an anesthesia induction chamber and given 3%-4% isoflurane for anesthesia induction. After the anesthesia induction, a breathing mask was applied, and the isoflurane concentration was adjusted to 1%-2% to prevent the rats from suffering pain during the surgery. Each rat was placed in a supine position, and the surgical site was disinfected with alcohol and iodophor. Under sterile conditions, a 0.5 cm longitudinal incision was made on the left hind paw surface, 0.2 cm away from the heel, extending toward the toes. The skin and fascia were incised; the plantar muscle was separated, slightly lifted, and longitudinally incised. The skin was then sutured with 5-0 sutures and disinfected.
as §1
as §2, with “modeling, the test was repeated, and” for “modeling,”, “h, 4 h, 6 h, or” for “h, and”, “after administration, and a single dose was administered.” for “after administration.”

In the case of COc1c(C2CC(C)(C(F)(F)F)SC2C(=O)Nc2ccnc(C(N)=O)c2)ccc(F)c1F (single isomer, unassigned) [Compound 139-A, 4-(3-(3,4-difluoro-2-methoxyphenyl)-5-methyl-5-(trifluoromethyl)tetrahydrothiophene-2-carboxamido)picolinamide], the “analgesic activity compared with the positive control Celecoxib” value ([1]; CFA-induced rat inflammatory pain model) is reported as “superior to the positive control Celecoxib”, the “PWT 50% value (g) Post-surgery, Preadministration” value (“PWT 50% value (g) Post-surgery” below) ([1]; SD rats CFA, 125 mg/kg group, baseline before administration, Mean + SEM, n = 10) is reported as 3.1 ± 1.12 g and the “PWT 50% value (g) Pre-surgery” value ([1]; SD rats CFA, 125 mg/kg group, baseline before modeling, Mean + SEM, n = 10) is reported as 12.61 ± 3.5 g. For the same compound, the “PWT 50% value (g) Time 0.5 h” value ([1]; SD rats CFA, 125 mg/kg, 0.5 h after administration, Mean + SEM, n = 10) was 6.78 ± 5.47 g, the “PWT 50% value (g) Time 2 h” value ([1]; SD rats CFA, 125 mg/kg, 2 h after administration, Mean + SEM, n = 10) was 6.54 ± 3.06 g and the “PWT 50% value (g) Time 8 h” value ([1]; SD rats CFA, 125 mg/kg, 8 h after administration, Mean + SEM, n = 10) was 3.6 ± 1.5 g. For the same compound, the “PWT 50% value (g) AUC0-8h” value ([1]; SD rats CFA, 125 mg/kg, Mean + SEM, n = 10) was 40.83 ± 12.03 g, the AUC(0-inf) ([2]; Oral administration (p.o.), 20 mg/kg) was 24800 ng·h/mL and the AUC(0-inf) ([2]; iv, Injection (i.v.), 2 mg/kg) was 3080 ng·h/mL. For the same compound, the “PWT 50% value (g) Post-surgery” value ([3]; 50 mg/kg group) was 2.68 ± 1.05 g, the “PWT 50% value (g) Pre-surgery” value ([3]; 50 mg/kg group) was 14.94 ± 2.38 g and the “PWT 50% value (g) Time 0.5 h” value ([3]; 50 mg/kg single dose) was 5.78 ± 2.76 g. For the same compound, the “PWT 50% value (g) Time 2 h” value ([3]; 50 mg/kg single dose) was 8.76 ± 2.47 g, the “PWT 50% value (g) Time 4 h” value ([3]; 50 mg/kg single dose) was 7.73 ± 4.32 g and the “PWT 50% value (g) Time 6 h” value ([3]; 50 mg/kg single dose) was 4.9 ± 1.61 g. The “PWT 50% value (g) Time 8 h” value ([3]; 50 mg/kg single dose) was 3.57 ± 1.44 g, the “PWT 50% value (g) AUC0-8h” value ([3]; 50 mg/kg single dose) was 50.59 ± 15.71 g and the “PWT 50% value (g) Post-surgery” value ([3]; 125 mg/kg group) was 2.68 ± 1 g. For the same compound, the “PWT 50% value (g) Pre-surgery” value ([3]; 125 mg/kg group) was 13.83 ± 3.18 g, the “PWT 50% value (g) Time 0.5 h” value ([3]; 125 mg/kg single dose) was 6.96 ± 3.34 g and the “PWT 50% value (g) Time 2 h” value ([3]; 125 mg/kg single dose) was 9.61 ± 3.73 g. For the same compound, the “PWT 50% value (g) Time 4 h” value ([3]; 125 mg/kg single dose) was 7.26 ± 3.19 g, the “PWT 50% value (g) Time 6 h” value ([3]; 125 mg/kg single dose) was 5.01 ± 1.63 g and the “PWT 50% value (g) Time 8 h” value ([3]; 125 mg/kg single dose) was 3.88 ± 1.67 g. The “PWT 50% value (g) AUC0-8h” value ([3]; 125 mg/kg single dose) was 52.87 ± 15.06 g, the dose-effect relationship ([3]; rat SNL model) was “relatively good dose-effect relationship” and the “differences compared with the model group” value ([3]; rat SNL model, all time points) was “significant differences compared with the model group at all time points”. For the same compound, the “analgesic activity compared with VX-548” value ([4]; SD rats incision pain model, at the same dose) was “better analgesic activity than VX-548”, the “PWT 50% value (g) Post-surgery” value ([4]; SD rats, 125 mg/kg group, baseline before administration, Mean + SEM, n = 10) was 3.95 ± 1.12 g and the “PWT 50% value (g) Pre-surgery” value ([4]; SD rats, 125 mg/kg group, baseline before surgery, Mean + SEM, n = 10) was 14.4 ± 1.27 g. For the same compound, the “PWT 50% value (g) Time 0.5 h” value ([4]; SD rats, 125 mg/kg single dose, 0.5 h after administration, Mean + SEM, n = 10) was 7.46 ± 3.86 g, the “PWT 50% value (g) Time 2 h” value ([4]; SD rats, 125 mg/kg single dose, 2 h after administration, Mean + SEM, n = 10) was 10.11 ± 3.83 g and the “PWT 50% value (g) Time 6 h” value ([4]; SD rats, 125 mg/kg single dose, 6 h after administration, Mean + SEM, n = 10) was 6.28 ± 2.28 g. The “PWT 50% value (g) Time 8 h” value ([4]; SD rats, 125 mg/kg single dose, 8 h after administration, Mean + SEM, n = 10) was 6.29 ± 2.6 g, the “PWT 50% value (g) AUC0-8h” value ([4]; SD rats, 125 mg/kg single dose, Mean + SEM, n = 10) was 60.47 ± 11.72 g and the dose-effect relationship ([4]; rat incision pain model) was “relatively good dose-effect relationship”.
